In US12005050B2, “Methods for preventing or treating H. pylori infection” (TENNOR THERAPEUTICS (SUZHOU) LIMITED, priority 2022, dated 2024):

System: Helicobacter pylori
Test: H. pylori eradication by 14C UBT test (Example 2)
Assay type: in vivo
Details: BID × 14 day; for UBT results Negative / UBT results Positive: treatment group A: Compound I capsule 400 mg + rabeprazole sodium 20 mg + amoxicillin 1 g
Protocol: In this example, 80 patients that are positive for Helicobacter pylori infection were admitted to the trial. The 80 patients were randomly allocated to 5 groups at a ratio of 2:2:1:1:2, including 4 treatment groups and 1 control group, and the dosage regimen is shown in Table 4.
Patients were administered with the combination therapy daily according to the dosing regimen of the respective group from day 1 to day 14, and the last dose was administered in the morning of day 15. Pharmacokinetic blood samples were collected at the scheduled time point during the trial and patiented to a safety tolerance assessment and ^14C UBT test. All patients left the hospital after completing the safety tolerance assessment and PK blood collection on the 17th day (day 17), and returned to the research institution for follow-up visits from the 44th to 50th day (day 44-day 50). Follow-up of adverse events and laboratory abnormalities continued until the patients completely recovered or returned to baseline levels or stable states. Safety tolerance assessment, and ^14C UBT tests were performed to assess H. pylori eradication effects.
The administration regimen was as follows: • Group A, Group B and Control Group: • Twice per day, the combination therapy was administered orally within 30 mins after breakfast and dinner, respectively, and the combination therapy was administered for 14 days consecutively. On day 15, the last administration was provided within 30 mins after breakfast. Each patient was administered for 29 times in total. • Group C and Group D: • Three times per day, and two administrations were separated by about 8 hours.
Patients were examined with ^14C UBT test during the screening period (D-14˜D-2), baseline period (D-1), day 8 (D8), day 16 (D16) and days 44˜50 (D44˜D50). The test was done fasting before breakfast to determine the effects of H. pylori eradication in each group.
• Full Analysis Set (FAS): refers to all randomized patients who have been administered with the combination therapy of the present disclosure at least once; • Modified Intentionality Analysis Set (mITT): refers to all randomized patients who underwent a ^14C UBT test on days 28 to 34 after the last administration; • Protocol-compliant Set (PP): refers to patients who have not experienced major protocol violations: randomized and treated with more than 80% (including 80%) of the total amount of the drug expected to be used in the investigation, and who were tested for ^14C UBT on days 28 to 34 after the last administration; • Safety Analysis Set (SS): refers to the patients who have entered the trial and have been administered the combination therapy of the present disclosure at least once; • Pharmacokinetic Concentration Analysis Dataset (PKCS): refers to all enrolled patients who have been administered with the combination therapy of the present disclosure and had at least one PK concentration observation; • Pharmacokinetic Parameter Analysis Dataset (PKPS): Refers to all enrolled patients who have been administered with the combination therapy of the present disclosure and had at least one PK parameter observation data point. Demographic Analysis: • Demographic analysis was based on Full Analysis Set (FAS). Descriptive statistical analysis of all demographics (age, sex, weight, height, BMI, ethnicity, etc.) and baseline characteristics, based on the measurement of the last valid data before the administration of the combination therapy of the present disclosure. Evaluation of the Eradication Effect of Helicobacter pylori: • The eradication effect analysis was performed with the Full Analysis Set (FAS), based on the results of four ^14C UBT tests (negative or positive) in group A, group B, group C, and control groups at baseline, on day 8, day 16, and follow-up days 44 to 50, and three ^14C UBT test results (negative or positive) in group D at baseline, on day 8, and follow-up days 37 to 43. […]

[1] = Day 8 after administration, FAS N = 20
[2] = Day 8 after administration, mITT N = 19
[3] = Day 16 after administration, FAS N = 20
[4] = Day 16 after administration, mITT N = 19
[5] = Follow up period (Day 44~Day 50), FAS N = 20
[6] = Follow up period (Day 44~Day 50), mITT N = 19

SMILES: CO[C@H]1/C=C/O[C@@]2(C)Oc3c(C)c(O)c4c(c3C2=O)C2=NC3(CCN(CCn5c([N+](=O)[O-])cnc5C)CC3)NC2=C(NC(=O)/C(C)=C\C=C\[C@H](C)[C@H](O)[C@@H](C)[C@@H](O)[C@@H](C)[C@H](OC(C)=O)[C@@H]1C)C4=O [Compound I, 4-Deoxy-3,4-[2-spiro-[1-[2-(2-methyl-5-nitro-imidazol-1-yl)ethyl]-piperidin-4-yl]]-(1H)-imidazo-(2,5-dihydro)rifamycin]
- UBT results Negative [1]: 18 (90.0) n(%)
- UBT results Positive [1]: 1 (5.0) n(%)
- UBT results Negative [2]: 18 (94.7) n(%)
- UBT results Positive [2]: 1 (5.3) n(%)
- UBT results Negative [3]: 18 (90.0) n(%)
- UBT results Positive [3]: 1 (5.0) n(%)
- UBT results Negative [4]: 18 (94.7) n(%)
- UBT results Positive [4]: 1 (5.3) n(%)
- UBT results Negative [5]: 18 (90.0) n(%)
- UBT results Positive [5]: 1 (5.0) n(%)
- UBT results Negative [6]: 18 (94.7) n(%)
- UBT results Positive [6]: 1 (5.3) n(%)
- Eradication rate (mITT set) of Helicobacter pylori (treatment group A: combination therapy of compound I, rabeprazole sodium and amoxicillin): 94.7%
